Reference: patent publication US20170042880A1, “Method of Treating Lung Adenocarcinoma” (Exelixis, Inc., priority 2014, published 2017)
Where two headings read alike, the source gives them in different places.

How the values were obtained:
[1] = tested on: HCC-78 NSCLC cells (SLC34A2-ROS1 fusion); assay: ROS1-dependent proliferation of HCC-78 NSCLC cells (BrdU ELISA); type: cell-based; conditions: Homo sapiens
Protocol: (§1) Both HCC-78 and NCI-H2228 cells were received from DSMZ and ATCC respectively as a frozen biological sample thawed into a T-75 flask (Nunc) and grown until 80 to 90% confluent for adherent cells or until cells were at a density of 1-2×10^6 cells/mL for suspension cells.
(§2) Cells were grown at 37° C. in a humidified, 5% CO2 atmosphere for 16 hours. […] Cells were assayed for proliferation by monitoring BrdU incorporation. […] After BrdU labelling, cells were fixed with FixDenat solution. anti-BrdU peroxidase (POD) conjugate was added and plates were washed with 1×PBS. Substrate solution was added, and luminescence measurements were taken on a Victor Wallac V plate reader (Perkin Elmer).

[2] = tested on: NCI-H2228 cells (EML4-ALK fusion); assay: BrdU ELISA proliferation of NCI-H2228 cells; type: cell-based; conditions: Homo sapiens, BrdU incorporation
Protocol: as §1, §2

[3] = target: T1, SLC34A2-ROS1 fusion (Homo sapiens, UniProt P08922); assay: Inhibition of ROS1 phosphorylation in HCC-78 cells (western blot); type: cell-based; conditions: single escalating doses, 3 hour incubation, versus Crizotinib
T1 construct: a portion of the ROS1 polypeptide comprising the kinase domain of the ROS1 protein; N-terminal portion of SLC34A2 (natural fusion partner, O95436); host or cells: HCC-78 (human NSCLC adenocarcinoma); the other entry of the earlier key: SLC34A2 (O95436, Sodium-dependent phosphate transport protein 2B)
Protocol: HCC-78 cells, a human lung NSCLC adenocarcinoma cell line (DSMZ, ACC 563) harboring the activating SLC34A2-ROS1 fusion and phosphor-Met, were seeded at 3×10^5 cells/well onto 6-well plates (Nunclon, 152795), RPMI 1640 (ATCC, 30-2001) containing 10% FBS (heat-inactivated, Cellgro) and 1% penicillin-streptomycin (Cellgro). DMSO or serial dilutions of compound 1 in fresh medium with 10% FBS in a final concentration of 0.3% DMSO (vehicle) were added to the cells and incubated for 3 hour. After treatment, cells were collected and washed with cold PBS and immediately lysed with 0.15 mL of cold lysis buffer (50 mM Tris HCl, pH 8.0, 150 mM NaCl, 1% NP 40, 0.1% SDS, 0.5% sodium deoxycholate, 1 mM EDTA, 50 mM NaF, 1 mM sodium pyrophosphate, 1 mM Na3VO4, 2 mM PMSF, 10 μg/mL aprotinin, 5 μg/mL leupeptin and 5 pμg/mL pepstatin A). Lysates were collected, and protein concentrations were measured by the BCA method (Pierce). […] The membranes were scanned using the Odyssey Scanner (Li-Cor) and the signal intensity of each band was quantified using ImageQuant (Molecular Devices). IC50 values were calculated based on the signal with compound treatment compared to the vehicle (DMSO) control.

[4] = target: RET (Homo sapiens, UniProt P07949); conditions: cited from earlier work
Sequence of RET (P07949 29-1114, species assumed): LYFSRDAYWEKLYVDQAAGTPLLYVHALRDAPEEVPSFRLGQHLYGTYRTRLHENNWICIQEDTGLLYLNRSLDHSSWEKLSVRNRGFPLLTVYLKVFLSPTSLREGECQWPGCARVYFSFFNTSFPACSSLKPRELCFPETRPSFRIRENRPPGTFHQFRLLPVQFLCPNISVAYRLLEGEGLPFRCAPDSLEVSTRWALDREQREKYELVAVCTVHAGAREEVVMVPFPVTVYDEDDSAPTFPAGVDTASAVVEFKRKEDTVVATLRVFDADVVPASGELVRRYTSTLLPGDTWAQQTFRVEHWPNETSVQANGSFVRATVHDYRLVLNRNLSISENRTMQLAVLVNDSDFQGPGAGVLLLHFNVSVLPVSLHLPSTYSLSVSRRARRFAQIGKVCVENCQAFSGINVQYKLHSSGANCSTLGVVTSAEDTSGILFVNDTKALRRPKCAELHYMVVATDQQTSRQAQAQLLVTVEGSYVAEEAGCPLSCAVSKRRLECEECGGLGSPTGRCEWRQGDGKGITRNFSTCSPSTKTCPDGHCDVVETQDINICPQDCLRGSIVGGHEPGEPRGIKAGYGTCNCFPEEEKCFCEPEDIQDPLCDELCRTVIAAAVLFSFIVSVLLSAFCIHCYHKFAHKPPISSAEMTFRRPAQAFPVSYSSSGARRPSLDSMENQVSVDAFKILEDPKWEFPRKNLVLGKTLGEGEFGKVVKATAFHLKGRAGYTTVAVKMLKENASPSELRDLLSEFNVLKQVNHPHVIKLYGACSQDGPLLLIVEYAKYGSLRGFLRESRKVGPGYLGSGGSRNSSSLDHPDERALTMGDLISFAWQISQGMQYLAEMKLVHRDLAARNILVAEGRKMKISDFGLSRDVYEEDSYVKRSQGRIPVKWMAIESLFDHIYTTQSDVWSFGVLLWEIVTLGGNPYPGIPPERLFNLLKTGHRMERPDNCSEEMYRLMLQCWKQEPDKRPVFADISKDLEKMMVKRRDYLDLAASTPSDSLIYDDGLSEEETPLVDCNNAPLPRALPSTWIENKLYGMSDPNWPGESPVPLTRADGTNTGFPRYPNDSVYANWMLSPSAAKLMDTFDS

T1 sequence (P08922 1945-2222 limits assumed): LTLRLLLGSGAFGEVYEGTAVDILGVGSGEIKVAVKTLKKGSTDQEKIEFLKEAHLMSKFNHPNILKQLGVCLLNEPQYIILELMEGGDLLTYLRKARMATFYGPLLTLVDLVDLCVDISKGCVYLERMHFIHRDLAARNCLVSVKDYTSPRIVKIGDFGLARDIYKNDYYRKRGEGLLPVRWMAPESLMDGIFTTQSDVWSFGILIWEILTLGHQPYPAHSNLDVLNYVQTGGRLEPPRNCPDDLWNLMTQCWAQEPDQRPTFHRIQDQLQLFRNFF

| SMILES | IC50 ([1]; HCC78, 48 h, read-out: 48 hr Prolif. IC50 (nM)) | IC50 ([1]; HCC78, 72 h, read-out: 72 hr Prolif. IC50 (nM)) | IC50 ([2]; NCI-H2228, 48 hr incubation, read-out: 48 hr Prolif. IC50) | IC50 ([2]; NCI-H2228, 72 hr incubation, read-out: 72 hr Prolif. IC50) | IC50 ([1]; HCC78, HCC-78, 48 hr incubation, BrdU incorporation, read-out: 48 hr Prolif. IC50) | IC50 ([1]; HCC78, HCC-78, 72 hr incubation, BrdU incorporation, read-out: 72 hr Prolif. IC50) | Inhibition of SLC34A2-ROS1 mediated kinase activity (ROS1 phosphorylation) [3] | inhibitor of RET [4] |
| --- | --- | --- | --- | --- | --- | --- | --- | --- |
| C[C@@H](Oc1cc(-c2cnn(C3CCNCC3)c2)cnc1N)c1c(Cl)ccc(F)c1Cl [Crizotinib, 3-[(1R)-1-(2,6-dichloro-3-fluorophenyl)ethoxy]-5-(1-piperidin-4-ylpyrazol-4-yl)pyridin-2-amine, reference compound] | 100 to 500 nM | 10 to 100 nM |  |  |  |  |  |  |
| COc1cc2nccc(Oc3ccc(NC(=O)C4(C(=O)Nc5ccc(F)cc5)CC4)cc3)c2cc1OC [Compound 1, N-(4-{[6,7-bis(methyloxy)quinolin-4-yl]oxy}phenyl)-N′-(4-fluorophenyl)cyclopropane-1,1-dicarboxamide] |  |  | 1000 to 5000 nM | 5000 to 10000 nM | 10 to 100 nM | 10 to 100 nM | more potent than the comparator control | potent inhibitor |
